From the supplement of paper PMC10307832

Assays:
Test in all cases: relative viability (nuclei count vs DMSO), 5 days (fraction); higher = more cells survive
Serdemetan + Pemetrexed = compound: c1ccc2c(CCNc3ccc(Nc4ccncc4)cc3)c[nH]c2c1 [Serdemetan] + Nc1nc2[nH]cc(CCc3ccc(C(=O)N[C@@H](CCC(=O)O)C(=O)O)cc3)c2c(=O)[nH]1 [Pemetrexed] (partner 0.2 µM)
In short: (§1)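 Relative viability was taken as the ratio of nuclei in treated wells to nuclei in vehicle wells. Lung cancer cell lines in 1536-well plates received compounds by pin tool one day after seeding, either one drug alone or a fixed anchor-drug dose plus five library-drug doses (not always all listed) in √10 steps. Nuclei were counted on 4× images after 5 days of treatment, and values are medians of duplicate plates.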

Selisistat + Tozasertib = compound: C1CC(C2=C(C1)C3=C(N2)C=CC(=C3)Cl)C(=O)N [Selisistat] + Cc1cc(Nc2cc(N3CCN(C)CC3)nc(Sc3ccc(NC(=O)C4CC4)cc3)n2)n[nH]1 [Tozasertib] (partner 0.1 µM)
In short: as §1

Serdemetan + OSI-027 = compound: c1ccc2c(CCNc3ccc(Nc4ccncc4)cc3)c[nH]c2c1 [Serdemetan] + COc1cccc2cc(-c3nc([C@H]4CC[C@H](C(=O)O)CC4)n4ncnc(N)c34)[nH]c12 [OSI-027] (partner 0.5 µM)
In short: as §1

Serdemetan + Dasatinib = compound: c1ccc2c(CCNc3ccc(Nc4ccncc4)cc3)c[nH]c2c1 [Serdemetan] + Cc1nc(Nc2ncc(C(=O)Nc3c(C)cccc3Cl)s2)cc(N2CCN(CCO)CC2)n1 [Dasatinib] (partner 0.075 µM)
In short: as §1

UMC-11
relative viability (Serdemetan + Pemetrexed; first compound 0.04 µM): 0.776
relative viability (Serdemetan + Pemetrexed; first compound 0.1265 µM): 0.718
relative viability (Serdemetan + Pemetrexed; first compound 0.4 µM): 0.689
relative viability (Serdemetan + Pemetrexed; first compound 1.265 µM): 0.666
relative viability (Serdemetan + Pemetrexed; first compound 4 µM): 0.586
relative viability (Selisistat + Tozasertib; first compound 0.4 µM): 0.212
relative viability (Selisistat + Tozasertib; first compound 1.265 µM): 0.21
relative viability (Selisistat + Tozasertib; first compound 4 µM): 0.209
relative viability (Selisistat + Tozasertib; first compound 12.65 µM): 0.205
relative viability (Selisistat + Tozasertib; first compound 40 µM): 0.212
relative viability (Serdemetan + OSI-027; first compound 0.04 µM): 0.563
relative viability (Serdemetan + OSI-027; first compound 0.1265 µM): 0.485
relative viability (Serdemetan + OSI-027; first compound 4 µM): 0.428
relative viability (Serdemetan + Dasatinib; first compound 0.04 µM): 0.45
relative viability (Serdemetan + Dasatinib; first compound 0.1265 µM): 0.437
relative viability (Serdemetan + Dasatinib; first compound 4 µM): 0.351
